Measured values published in patent US20090029366A1 (priority 2007, published 2009).

Molecular target: T1, human HCN2 channel (Homo sapiens, UniProt Q9UL51)
T1 construct: expressed in transfected cells; host or cells: HEK-293H (clones #4, #8, #11, #12)
T1 sequence (Q9UL51 1-889): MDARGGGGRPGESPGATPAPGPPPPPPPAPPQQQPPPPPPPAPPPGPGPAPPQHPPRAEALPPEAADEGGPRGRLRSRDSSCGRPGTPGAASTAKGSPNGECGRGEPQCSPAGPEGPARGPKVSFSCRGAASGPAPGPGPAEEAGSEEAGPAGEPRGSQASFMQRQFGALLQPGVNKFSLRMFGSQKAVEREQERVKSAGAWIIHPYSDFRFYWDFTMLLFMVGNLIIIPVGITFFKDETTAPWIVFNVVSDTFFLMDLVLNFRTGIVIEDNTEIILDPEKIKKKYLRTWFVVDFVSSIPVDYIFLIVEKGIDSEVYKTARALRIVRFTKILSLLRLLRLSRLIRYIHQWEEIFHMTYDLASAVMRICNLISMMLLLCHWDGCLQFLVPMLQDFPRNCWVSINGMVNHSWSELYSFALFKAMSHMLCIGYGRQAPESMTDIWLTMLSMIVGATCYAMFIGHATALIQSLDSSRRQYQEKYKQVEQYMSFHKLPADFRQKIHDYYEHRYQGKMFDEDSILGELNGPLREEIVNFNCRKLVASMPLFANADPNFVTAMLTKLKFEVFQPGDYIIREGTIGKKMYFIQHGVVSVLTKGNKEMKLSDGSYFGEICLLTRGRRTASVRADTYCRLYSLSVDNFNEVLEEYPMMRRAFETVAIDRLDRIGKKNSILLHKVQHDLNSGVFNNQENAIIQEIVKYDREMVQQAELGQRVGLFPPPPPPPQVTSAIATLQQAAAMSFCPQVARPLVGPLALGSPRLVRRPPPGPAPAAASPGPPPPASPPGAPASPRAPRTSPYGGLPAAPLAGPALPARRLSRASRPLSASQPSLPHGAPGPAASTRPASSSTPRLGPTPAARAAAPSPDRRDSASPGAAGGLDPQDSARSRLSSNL
Experiment: MPSD FLIPR 384 assay on HEK-293H clones expressing HCN2
Assay type: cell-based
Settings: 30 μM ZD7288
Description: HEK-293H cells were transfected with constructs encoding a human HCN2 channel essentially as described in Example 1. Cell lines were generated from a single clone according to standard protocols. The cells were incubated in HBSS/MPSD (control cells) or HBSS/MPSD and 30 μM ZD7288 (test cells) using a 384 well plate format, followed by the addition of the sodium/potassium diluent solution essentially as described in Examples 3 and 5. FIGS. 14A-14D show the effect of ZD7288 on each of the four clones expressing HCN2 channels. FIGS. 14A (clone #4), 14B (clone #8), 14C (clone #11), and 14D (clone #12) each depict the change in fluorescence over time for cells incubated in saline only (overlaid lower traces ) and for cells incubated in saline containing the HCN channel inhibitor ZD7288 (overlaid upper traces ). […] The Z-factor was between 0.56 and 0.64, and the covariance (CV) was between from 6.6 to 9.9.

CCN(c1ccccc1)c1cc(=NC)n(C)c(C)n1.Cl [ZD7288]
blockade of hyperpolarization for each of the HCN2 clones (384 well, clones #4, #8, #11, #12): effectively blocked hyperpolarization | Δfluorescence (saline + ZD7288), Mean (Clone #4, saline only −24421): −2392 RFU | Δfluorescence (saline + ZD7288), Mean (Clone #8, saline only −23600): −3006 RFU | Δfluorescence (saline + ZD7288), Mean (Clone #11, saline only −25477): −2413 RFU | Δfluorescence (saline + ZD7288), Mean (Clone #12, saline only −26367): −4834 RFU
